# Like-named read-outs stand apart in the source and are kept apart here. Positions of bridges follow the written chain, without caps; N, C: chain ends. Non-standard residues stand in square brackets, D forms with d. Residues, ends and D or L forms follow the SMILES beside them. *: point of attachment. Malonyl(2,2-Me2,histaminyl) = CC(C)(C(=O)NCCc1cnc[nH]1)C(=O)*; Ala(1H-tetrazol-5-yl) = N[C@@H](Cc1nnn[nH]1)C(=O)O; αMePhe(2-F) = C[C@](N)(Cc1ccccc1F)C(=O)O; Nle = CCCC[C@H](N)C(=O)O
# Columns and labels:
# [1] = biological target: T1, human GLP2 receptor (Homo sapiens, UniProt O95838); test: cAMP accumulation assay, functional agonism of human GLP2 receptor; assay type: cell-based; settings: HEK cells infected with human GLP2 receptor BacMam virus, HTRF cAMP; for Emax: HEK293, read-out: Human GLP-2R agonist cAMP Emax; for EC50: read-out: Human GLP-2R agonist cAMP pEC50 (converted)
# T1 construct: expressed in transfected cells; host or cells: HEK cells, BacMam virus transduction
# T1 sequence (O95838 1-553): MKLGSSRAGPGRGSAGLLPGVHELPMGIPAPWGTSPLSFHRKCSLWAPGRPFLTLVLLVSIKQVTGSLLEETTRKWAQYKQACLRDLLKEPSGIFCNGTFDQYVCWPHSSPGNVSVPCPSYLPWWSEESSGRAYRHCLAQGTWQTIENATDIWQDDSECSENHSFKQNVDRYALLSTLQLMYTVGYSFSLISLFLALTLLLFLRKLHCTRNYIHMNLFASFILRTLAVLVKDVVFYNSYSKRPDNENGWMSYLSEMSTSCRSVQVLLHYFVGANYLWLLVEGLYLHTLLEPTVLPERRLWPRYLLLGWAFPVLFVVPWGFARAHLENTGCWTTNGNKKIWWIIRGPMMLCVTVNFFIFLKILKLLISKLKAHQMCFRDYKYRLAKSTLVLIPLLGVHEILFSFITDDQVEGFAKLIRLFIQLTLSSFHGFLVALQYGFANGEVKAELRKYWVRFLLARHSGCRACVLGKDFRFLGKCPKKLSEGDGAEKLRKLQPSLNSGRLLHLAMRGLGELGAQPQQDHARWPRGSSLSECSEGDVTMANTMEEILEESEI
# Procedure, shortened: (§1)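 HTRF cAMP read-out: HEK cells expressing GLP1 or GLP2 receptor via 24 h BacMam infection, frozen before use; agonist exposure 45 min, 37° C, HBSS + 0.5 mM IBMX; stopped with detection reagents in lysis buffer.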
# [2] = biological target: T2, human GLP1 receptor (Homo sapiens, UniProt P43220); test: cAMP accumulation assay, functional agonism of human GLP1 receptor; assay type: cell-based; settings: HEK cells infected with human GLP1 receptor BacMam virus, HTRF cAMP; for Emax: HEK293, read-out: Human GLP-1R agonist cAMP Emax; for EC50: read-out: Human GLP-1R agonist cAMP pEC50 (converted)
# T2 construct: expressed in transfected cells; host or cells: HEK cells, BacMam virus transduction
# T2 sequence (P43220 24-463): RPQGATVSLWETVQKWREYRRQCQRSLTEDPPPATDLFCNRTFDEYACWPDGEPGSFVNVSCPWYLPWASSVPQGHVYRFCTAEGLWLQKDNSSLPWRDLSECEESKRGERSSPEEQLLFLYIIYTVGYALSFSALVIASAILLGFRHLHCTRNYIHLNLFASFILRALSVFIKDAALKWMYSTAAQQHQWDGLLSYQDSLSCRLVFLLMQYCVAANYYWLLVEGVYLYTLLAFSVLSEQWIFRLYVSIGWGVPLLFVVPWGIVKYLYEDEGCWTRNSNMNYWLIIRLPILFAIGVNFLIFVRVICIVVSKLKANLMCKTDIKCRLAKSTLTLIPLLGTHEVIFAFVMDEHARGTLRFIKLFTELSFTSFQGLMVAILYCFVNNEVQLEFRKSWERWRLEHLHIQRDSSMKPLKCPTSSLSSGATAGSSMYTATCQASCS
# Procedure, shortened: as §1
# [3] = biological target: T3, mouse GLP2 receptor (Mus musculus, UniProt Q5IXF8); test: cAMP accumulation assay, functional agonism of mouse GLP2 receptor; assay type: cell-based
# T3 construct: expressed in transfected cells; host or cells: HEK cells, transient transfection with GeneJuice
# T3 sequence (Q5IXF8 1-512): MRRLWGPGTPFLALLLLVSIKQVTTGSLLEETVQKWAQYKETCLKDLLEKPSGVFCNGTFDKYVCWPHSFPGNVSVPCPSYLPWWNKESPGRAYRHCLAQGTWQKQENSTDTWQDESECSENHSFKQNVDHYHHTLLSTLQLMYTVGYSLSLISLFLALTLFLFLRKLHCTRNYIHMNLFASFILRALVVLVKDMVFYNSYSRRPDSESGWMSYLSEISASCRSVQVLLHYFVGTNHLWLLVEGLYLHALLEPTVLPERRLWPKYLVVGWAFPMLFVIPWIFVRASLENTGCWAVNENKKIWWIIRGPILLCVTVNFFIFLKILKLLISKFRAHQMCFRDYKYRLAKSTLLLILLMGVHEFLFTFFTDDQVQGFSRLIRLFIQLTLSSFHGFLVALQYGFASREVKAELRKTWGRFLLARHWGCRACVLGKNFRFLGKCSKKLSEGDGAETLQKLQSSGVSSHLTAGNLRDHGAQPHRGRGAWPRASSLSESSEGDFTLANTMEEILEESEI
# Procedure, shortened: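 pEC50 values come from four-parameter fits of HTRF cAMP signal, read after lysis and 1 h RT incubation. Compounds were incubated 45 min at 37 °C with previously frozen, transiently transfected HEK cells (8000/well) in HBSS containing 0.5 mM IBMX.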
# [4] = biological target: T4, mouse GLP1 receptor (Mus musculus, UniProt O35659); test: cAMP accumulation assay, functional agonism of mouse GLP1 receptor; assay type: cell-based; settings: HEK cells transiently transfected with mouse GLP1 receptor, HTRF cAMP
# T4 construct: expressed in transfected cells; host or cells: HEK cells, transient transfection with GeneJuice
# T4 sequence (O35659 22-463): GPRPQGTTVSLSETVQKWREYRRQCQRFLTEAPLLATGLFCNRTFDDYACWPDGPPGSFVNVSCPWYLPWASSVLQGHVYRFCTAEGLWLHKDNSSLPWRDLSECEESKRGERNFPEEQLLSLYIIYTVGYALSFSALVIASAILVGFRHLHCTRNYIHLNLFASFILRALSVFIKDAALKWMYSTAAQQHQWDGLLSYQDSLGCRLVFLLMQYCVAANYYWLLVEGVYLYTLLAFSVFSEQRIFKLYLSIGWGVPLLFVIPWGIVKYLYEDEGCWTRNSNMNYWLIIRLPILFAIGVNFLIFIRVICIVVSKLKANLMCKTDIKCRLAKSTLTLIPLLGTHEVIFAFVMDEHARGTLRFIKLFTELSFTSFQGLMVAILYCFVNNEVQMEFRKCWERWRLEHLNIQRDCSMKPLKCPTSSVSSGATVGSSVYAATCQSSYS
# Protocol: CAMP production upon agonist stimulation of mouse GLP2 or GLP1 receptors was assessed utilizing HiRange cAMP kit (Cisbio). In brief, HEK cells were transiently transfected for 24 hours with cDNA using GeneJuice Transfection reagent (EMD Millipore) and frozen at −80° C. for later use in the assay. […] Cells were prepared in the assay buffer (HBSS (Lonza) supplemented with 0.5 mM IBMX (Tocris)). After 45 min incubation at 37° C., the reaction was stopped by addition of the HTRF detection reagents in the lysis buffer provided in the kit. Following 1-hour incubation at RT, plates were read on Pherastar FS (BMG Labtech, Inc.) using standard HTRF settings. Dotmatics Studies software was used for calculation of pEC50 values by fitting data to a four-parameter concentration response curve.
# [5] = Stability of peptides in Fasted-State Simulated Intestinal Fluid (FaSSIF); assay type: in vitro ADME; settings: FaSSIF with 10 mg/ml pancreatin; t=30 mins, 37° C., pH 6.5, 10 mg/ml pancreatin
# Protocol: Stability of peptides was tested in Fasted-State Simulated Intestinal Fluid (FaSSIF) prepared according to manufacturer's protocol (Biorelevant, art.no. FFF01, pH 6.5). […] FaSSIF was pre-incubated for 15 min at 37° C. and spiked with test and reference item working solutions. Experiments were conducted in duplicate in a non-serial manner. The total incubation volume per replicate was 150 μl. Sampling time points for test items were 0, 0.5, 2, 5, 10, 15 and 30 min. All samples and calibration standards (prepared in FaSSIF) were precipitated by addition of 300 μl precipitant (ACN / 2% acetic acid / 0.2% HFBA, (precipitation reagent, PR)) containing internal standard (ISTD) to 150 μl sample. After incubation for 1 h at room temperature all samples were centrifuged for 10 min at 2,200×g (room temperature).
# [6] = Stability of peptides in Fasted-State Simulated Gastric Fluid (FaSSGF); assay type: in vitro ADME; settings: FaSSGF with 0.1 mg/ml pepsin; t=30 mins, 37° C., pH 1.6, 0.1 mg/ml pepsin
# Protocol: Stability of peptides was tested in Fasted-State Simulated gastric Fluid (FaSSGF) prepared according to manufacturer's protocol (Biorelevant, art. no. FFF01). […] FaSSGF was pre-incubated for 15 min at 37° C. and spiked with test and reference item working solutions. Experiments were conducted in duplicate in a non-serial manner. The total incubation volume per replicate was 150 μl. […] All samples and calibration standards (prepared in FaSSGF) were precipitated by addition of 300 μl precipitant (ACN / 2% acetic acid / 0.2% HFBA, (precipitation regent, PR)) containing internal standards (ISTD) to 150 μl sample. After incubation for 1 h at room temperature all samples were centrifuged for 10 min at 2,200×g (room temperature).
# [7] = Stability of peptides in rat intestinal fluid (ratIF); settings: Sprague Dawley, undiluted rat small intestinal fluid (ratIF)
# Protocol: (§2) Peptides were tested for in vitro stability in native intestinal fluid obtained from the rat small intestine. Rat Sprague Dawley Small Intestinal Fluid (ratIF) (from Biotrend art. no. RSD-SIF-MI-30ML, undiluted) was preincubated for 15 min at 37° C. and spiked with test and reference item working solutions. Experiments were conducted in duplicate in a non-serial manner. The total incubation volume per replicate was 150 μl. […] All samples and calibration standards (prepared in ratIF) were precipitated by addition of 300 μl precipitant (ACN / 2% acetic acid / 0.2% HFBA, (precipitation regent, PR)) containing internal standards (ISTD) to 150 μl sample. After incubation for 1 h at room temperature all samples were centrifuged for 10 min at 2,200×g (room temperature).
# [8] = in vitro; settings: Sprague Dawley, rat, real gastrointestinal fluid or homogenate
# Protocol: as §2
"Emax ([3]; HEK293, HEK cells transiently transfected with mouse GLP2 receptor, HTRF cAMP, read-out: Mouse GLP-2R agonist cAMP Emax)","EC50 ([3]; HEK cells transiently transfected with mouse GLP2 receptor, HTRF cAMP, read-out: Mouse GLP-2R agonist cAMP pEC50 (converted))","Emax ([4]; HEK293, read-out: Mouse GLP-1R agonist cAMP Emax)",EC50 ([4]; read-out: Mouse GLP-1R agonist cAMP pEC50 (converted)),remaining at 0.5 h [5],remaining at 0.5 h [6],remaining at 0.5 h [7],Compound,Emax [1],EC50 [1],Emax [2],EC50 [2],EC50 [3],"Emax ([3]; HEK293, read-out: Mouse GLP-2R agonist cAMP Emax)",remaining at 0.5 h [8]
91.6%,1 nM,94.3%,0.0398 nM,11%,34%,22.5%,"CCCC[C@@H]1NC(=O)[C@H](CCC(=O)O)NC(=O)[C@@H](NC(=O)[C@H](CO)NC(=O)[C@H](Cc2ccccc2)NC(=O)[C@H](CO)NC(=O)CNC(=O)[C@H](Cc2nn[nH]n2)NC(=O)C(C)(C)C(=O)NCCc2c[nH]cn2)CCCCNC(=O)C[C@@H](C(=O)N[C@H](C(=O)N[C@@H](CC(C)C)C(=O)N[C@@H](CC(=O)O)C(=O)N[C@H]2CCC(=O)NCCCC[C@@H](C(=O)N[C@@H](CC(=O)O)C(=O)N[C@@H](Cc3ccccc3)C(=O)N[C@H](C(=O)N[C@@H](CC(N)=O)C(=O)N[C@@H](Cc3c[nH]c4ccccc34)C(=O)N[C@@H](CC(C)C)C(=O)N[C@H](C(=O)N[C@@H](CCC(N)=O)C(=O)N[C@H](C(=O)N[C@H]3CCC(=O)NCCCC[C@@H](C(N)=O)NC(=O)[C@H]([C@@H](C)O)NC(=O)[C@H]([C@@H](C)CC)NC3=O)[C@@H](C)O)[C@@H](C)CC)[C@@H](C)CC)NC(=O)[C@H](C)NC(=O)[C@H](C)NC(=O)[C@H](CCCCN)NC2=O)[C@@H](C)CC)NC(=O)[C@@H](Cc2ccccc2)NC1=O [Example 2] ({Malonyl(2,2-Me2,histaminyl)}-[Ala(1H-tetrazol-5-yl)]GSFSKE[Nle][dF]DILDEKAAKDFINWLIQTEITK-NH2; lactam 6-10, 14-18, 28-31 (inferred); C-terminus assumed)",103%,0.0316 nM,92.5%,0.398 nM,–,–,–
–,–,–,–,–,–,–,"CCCC[C@@H]1NC(=O)[C@H](CCC(=O)O)NC(=O)[C@@H](NC(=O)[C@H](CO)NC(=O)[C@](C)(Cc2ccccc2F)NC(=O)[C@H](CO)NC(=O)[C@@H](C)NC(=O)[C@H](Cc2nn[nH]n2)NC(=O)C(C)(C)C(=O)NCCc2c[nH]cn2)CCCCNC(=O)C[C@@H](C(=O)N[C@H](C(=O)N[C@@H](CC(C)C)C(=O)N[C@@H](CC(=O)O)C(=O)N[C@H]2CCC(=O)NCCCC[C@@H](C(=O)N[C@@H](CC(=O)O)C(=O)N[C@@H](Cc3ccccc3)C(=O)N[C@H](C(=O)N[C@H]3CCCCNC(=O)C[C@@H](C(=O)N[C@H]4CCC(=O)NCCCC[C@@H](C(N)=O)NC(=O)[C@H]([C@@H](C)O)NC(=O)[C@H]([C@@H](C)CC)NC(=O)[C@H](CCCCN)NC4=O)NC(=O)[C@H]([C@@H](C)CC)NC(=O)[C@H](CC(C)C)NC(=O)[C@H](Cc4c[nH]c5ccccc45)NC3=O)[C@@H](C)CC)NC(=O)[C@H](C)NC(=O)[C@H](C)NC(=O)[C@H](CCCCN)NC2=O)[C@@H](C)CC)NC(=O)[C@@H](Cc2ccccc2)NC1=O [Example 55] ({Malonyl(2,2-Me2,histaminyl)}-[Ala(1H-tetrazol-5-yl)][dA]S[αMePhe(2-F)]SKE[Nle][dF]DILDEKAAKDFIKWLIDEKITK-NH2; lactam 6-10, 14-18, 22-26, 27-31 (inferred); C-terminus assumed)",103%,0.01 nM,97.9%,0.0501 nM,0.316 nM,101%,64.9%

# From patent publication US20240270809A1, “ORAL GLP RECEPTOR AGONISTS” (priority 2020, published 2024)
